Reference: ChEMBL document CHEMBL3046556, “Microwave-assisted synthesis and antimicrobial screening of new imidazole derivatives bearing 4-thiazolidinone nucleus” (2013)
Values after ≈ are worked out from the molar mass of the structure shown. Active and inactive are the calls of the source. The calls are words filed in the database; no cut-off is given here.

Columns and labels:
[1] = tested on: Escherichia coli; test: Antibacterial activity against Escherichia coli MTCC 443 assessed as growth inhibition at 12.5 to 1000 ug/mL after 24 hr by NCCLS broth dilution method; format: functional, organism-based
[2] = tested on: Candida albicans; test: Antifungal activity against Candida albicans MTCC 227 assessed as growth inhibition at 12.5 to 1000 ug/mL after 48 hr by broth dilution method; format: functional, organism-based
[3] = tested on: Aspergillus niger; test: Antifungal activity against Aspergillus niger MTCC 282 assessed as growth inhibition at 12.5 to 1000 ug/mL after 48 hr by broth dilution method; format: functional, organism-based
[4] = tested on: Aspergillus clavatus; test: Antifungal activity against Aspergillus clavatus MTCC 1323 assessed as growth inhibition at 12.5 to 1000 ug/mL after 48 hr by broth dilution method; format: functional, organism-based
[5] = tested on: Staphylococcus aureus; test: Antibacterial activity against Staphylococcus aureus MTCC 96 assessed as growth inhibition after 24 hr by NCCLS broth dilution method; format: functional; settings: MTCC 96, 24 h
[6] = tested on: Streptococcus pyogenes; test: Antibacterial activity against Streptococcus pyogenes MTCC 442 assessed as growth inhibition after 24 hr by NCCLS broth dilution method; format: functional; settings: MTCC 442, 24 h
[7] = tested on: Pseudomonas aeruginosa; test: Antibacterial activity against Pseudomonas aeruginosa MTCC 1688 assessed as growth inhibition after 24 hr by NCCLS broth dilution method; format: functional; settings: MTCC 1688, 24 h
[8] = tested on: Escherichia coli; test: Antibacterial activity against Escherichia coli MTCC 443 assessed as growth inhibition after 24 hr by NCCLS broth dilution method; format: functional; settings: MTCC 443, 24 h
[9] = tested on: Pseudomonas aeruginosa; test: Antibacterial activity against Pseudomonas aeruginosa MTCC 1688 assessed as growth inhibition at 12.5 to 1000 ug/mL after 24 hr by NCCLS broth dilution method; format: functional, organism-based
[10] = tested on: Streptococcus pyogenes; test: Antibacterial activity against Streptococcus pyogenes MTCC 442 assessed as growth inhibition at 12.5 to 1000 ug/mL after 24 hr by NCCLS broth dilution method; format: functional, organism-based
[11] = tested on: Staphylococcus aureus; test: Antibacterial activity against Staphylococcus aureus MTCC 96 assessed as growth inhibition at 12.5 to 1000 ug/mL after 24 hr by NCCLS broth dilution method; format: functional, organism-based

Compound | growth inhibition (GI) [1] | growth inhibition (GI) [2] | growth inhibition (GI) [3] | growth inhibition (GI) [4] | MIC [5] [µg/mL] | MIC [6] [µg/mL] | MIC [7] [µg/mL] | MIC [8] [µg/mL] | growth inhibition (GI) [9] | growth inhibition (GI) [10] | growth inhibition (GI) [11]
CC1=N/C(=C/c2ccc(C)cc2)C(=O)N1c1ccc(/C(C)=N/NC(N)=S)cc1 | inactive | Active | Active | Active | 500 (≈ 1280 µM) | 500 (≈ 1280 µM) | 500 (≈ 1280 µM) |  |  |  | 
CC1(C)S[C@@H]2[C@H](NC(=O)[C@H](N)c3ccccc3)C(=O)N2[C@H]1C(=O)O [AMPICILLIN] |  |  |  |  | 100 (≈ 286 µM) | 100 (≈ 286 µM) | 100 (≈ 286 µM) | 250 (≈ 715 µM) |  |  | 
CC(=O)c1ccc(N2C(=O)/C(=C\c3ccccc3F)N=C2C)cc1 | inactive | inactive | inactive | inactive |  |  |  |  | inactive | inactive | inactive
CC(=O)c1ccc(N2C(=O)/C(=C\c3ccccc3Cl)N=C2C)cc1 | inactive | inactive | inactive | inactive |  |  |  |  | inactive | inactive | inactive
CC(=O)c1ccc(N2C(=O)/C(=C\c3cccc(O)c3)N=C2C)cc1 | inactive | inactive | inactive | inactive |  |  |  |  | inactive | inactive | inactive
CC(=O)c1ccc(N2C(=O)/C(=C\c3ccc(Cl)cc3)N=C2C)cc1 | inactive | inactive | inactive | inactive |  |  |  |  | inactive | inactive | inactive
CC1=N/C(=C/c2ccc(Cl)cc2)C(=O)N1c1ccc(/C(C)=N/NC(N)=S)cc1 | inactive | Active | Active | Active |  |  |  |  | inactive | inactive | inactive
CC(=O)c1ccc(N2C(=O)/C(=C\c3ccc([N+](=O)[O-])cc3)N=C2C)cc1 | inactive | inactive | inactive | inactive |  |  |  |  | inactive | inactive | inactive
CC(=O)c1ccc(N2C(=O)/C(=C\c3cccc(C)c3)N=C2C)cc1 | inactive | inactive | inactive | inactive |  |  |  |  | inactive | inactive | inactive
COc1ccc(/C=C2/N=C(C)N(c3ccc(C(C)=O)cc3)C2=O)cc1 |  | inactive | inactive | inactive | 1000 (≈ 2990 µM) |  |  | 1000 (≈ 2990 µM) | inactive | inactive | 
CC1=N/C(=C/c2ccc(O)cc2)C(=O)N1c1ccc(/C(C)=N/NC(N)=S)cc1 | inactive | Active | Active | Active | 500 (≈ 1270 µM) | 500 (≈ 1270 µM) | 500 (≈ 1270 µM) |  |  |  | 
CC(=O)c1ccc(N2C(=O)/C(=C\c3ccc(F)cc3)N=C2C)cc1 | inactive | inactive | inactive | inactive |  |  |  |  | inactive | inactive | inactive
CC1=N/C(=C/c2ccccc2O)C(=O)N1c1ccc(/C(C)=N/NC(N)=S)cc1 | inactive | Active | Active | Active | 500 (≈ 1270 µM) | 500 (≈ 1270 µM) | 500 (≈ 1270 µM) |  |  |  | 
CC1=N/C(=C/c2ccccc2)C(=O)N1c1ccc(/C(C)=N/NC(N)=S)cc1 | inactive | Active | Active | Active |  |  |  |  | inactive | inactive | inactive
CC(=O)c1ccc(N2C(=O)/C(=C\c3ccccc3C)N=C2C)cc1 | inactive | inactive | inactive | inactive |  |  |  |  | inactive | inactive | inactive
CC1=N/C(=C/c2ccccc2Cl)C(=O)N1c1ccc(/C(C)=N/NC(N)=S)cc1 | inactive | Active | Active | Active |  |  |  |  | inactive | inactive | inactive
CC1=N/C(=C/c2cccc(O)c2)C(=O)N1c1ccc(/C(C)=N/NC(N)=S)cc1 |  | Active | Active | Active | 500 (≈ 1270 µM) |  |  | 1000 (≈ 2540 µM) | inactive | inactive | 
CC1=N/C(=C/c2ccc(F)cc2)C(=O)N1c1ccc(/C(C)=N/NC(N)=S)cc1 | inactive | Active | Active | Active |  |  |  |  | inactive | inactive | inactive
CC1=N/C(=C/c2ccccc2[N+](=O)[O-])C(=O)N1c1ccc(/C(C)=N/NC(N)=S)cc1 | inactive | Active | Active | Active |  |  |  |  | inactive | inactive | inactive
COc1ccc(/C=C2/N=C(C)N(c3ccc(/C(C)=N/NC(N)=S)cc3)C2=O)cc1 | inactive | Active | Active | Active | 500 (≈ 1230 µM) | 500 (≈ 1230 µM) | 500 (≈ 1230 µM) |  |  |  | 
CC1=N/C(=C/c2ccc([N+](=O)[O-])cc2)C(=O)N1c1ccc(/C(C)=N/NC(N)=S)cc1 | inactive | Active | Active | Active |  |  |  |  | inactive | inactive | inactive
CC1=N/C(=C/c2ccccc2F)C(=O)N1c1ccc(/C(C)=N/NC(N)=S)cc1 | inactive | Active | Active | Active |  |  |  |  | inactive | inactive | inactive
CC(=O)c1ccc(N2C(=O)/C(=C\c3ccccc3)N=C2C)cc1 | inactive | inactive | inactive | inactive |  |  |  |  | inactive | inactive | inactive
COc1ccccc1/C=C1/N=C(C)N(c2ccc(/C(C)=N/NC(N)=S)cc2)C1=O | inactive | Active | Active | Active |  |  |  |  | inactive | inactive | inactive
CC1=N/C(=C/c2ccccc2C)C(=O)N1c1ccc(/C(C)=N/NC(N)=S)cc1 | inactive | Active | Active | Active |  |  |  |  | inactive | inactive | inactive
CC1=N/C(=C/c2cccc(C)c2)C(=O)N1c1ccc(/C(C)=N/NC(N)=S)cc1 |  | Active | Active | Active | 500 (≈ 1280 µM) |  |  | 1000 (≈ 2550 µM) | inactive | inactive | 
CC(=O)c1ccc(N2C(=O)/C(=C\c3ccccc3[N+](=O)[O-])N=C2C)cc1 | inactive | inactive | inactive | inactive |  |  |  |  | inactive | inactive | inactive
